Square brackets hold non-standard residues; d marks the D form. Peptide text beside a SMILES is read from it. * marks the point of attachment. Phe(3,4-(OMe)2) = COc1ccc(C[C@H](N)C(=O)O)cc1OC; Phe(3-CONH2) = NC(=O)c1cccc(C[C@H](N)C(=O)O)c1; Abu(4,4,4-F3) = N[C@@H](CC(F)(F)F)C(=O)O; Phe(4-CN) = N#Cc1ccc(C[C@H](N)C(=O)O)cc1; Phe(3-F) = N[C@@H](Cc1cccc(F)c1)C(=O)O; Phe(3-Me) = Cc1cccc(C[C@H](N)C(=O)O)c1; Dab(3S-OH) = NC[C@H](O)[C@H](N)C(=O)O; Phe(2-F) = N[C@@H](Cc1ccccc1F)C(=O)O; ΔZArg = N=C(N)NCC/C=C(\N)C(=O)O; Gly(cPr) = N[C@H](C(=O)O)C1CC1; Lys(Me) = CNCCCC[C@H](N)C(=O)O; dOrn = NCCC[C@@H](N)C(=O)O; Orn = NCCC[C@H](N)C(=O)O; Nva = CCC[C@H](N)C(=O)O; NH(CH2)4NH2 = NCCCCN*
Tests used:
Experiment in all cases: MIC, broth microdilution (CLSI), reference strain
Settings in all cases: CAMHB
[1] = test system: Pseudomonas aeruginosa ATCC 27853
[2] = test system: Acinetobacter baumannii ATCC 19606
[3] = test system: Staphylococcus aureus ATCC 13709
[4] = test system: Escherichia coli ATCC 25922

SMILES	Pa: MIC Pseudomonas aeruginosa ATCC 27853 [1]	Ab: MIC Acinetobacter baumannii ATCC 19606 [2]	Sa: MIC Staphylococcus aureus ATCC 13709 [3]	Ec: MIC Escherichia coli ATCC 25922 [4]
CCC[C@H](NC(=O)[C@@H](NC(=O)[C@@H](N)CCCCN)[C@@H](O)CN)C(=O)NCC(=O)N[C@H](CCCN)C(=O)N1CCC[C@H]1C(=O)N[C@@H](Cc1cnc[nH]1)C(=O)N[C@@H](CCCCN)C(=O)N/C(=C\CCNC(=N)N)C(=O)N[C@@H](CCCCN)C(=O)NCCCCN [210.1] (H-K[Dab(3S-OH)][Nva]G[dOrn]PHK[ΔZArg]K-{NH(CH2)4NH2})	− (>32 μg/mL)	− (>32 μg/mL)	++ (≤8 μg/mL)	− (>32 μg/mL)
N=C(N)NCC/C=C(\NC(=O)[C@H](CCCCN)NC(=O)[C@H](Cc1cnc[nH]1)NC(=O)[C@@H]1CCCN1C(=O)[C@@H](CCCN)NC(=O)CNC(=O)[C@H](CCCN)NC(=O)[C@@H](NC(=O)[C@@H](N)CCCCN)[C@@H](O)CN)C(=O)N[C@@H](CCCCN)C(=O)NCCCCN [211.1] (H-K[Dab(3S-OH)][Orn]G[dOrn]PHK[ΔZArg]K-{NH(CH2)4NH2})	++ (≤8 μg/mL)	+ (≤32 μg/mL)	++ (≤8 μg/mL)	++ (≤8 μg/mL)
N=C(N)NCC/C=C(\NC(=O)[C@H](CCCCN)NC(=O)[C@H](Cc1cnc[nH]1)NC(=O)[C@@H]1CCCN1C(=O)[C@@H](CCCN)NC(=O)CNC(=O)[C@H](CCCN)NC(=O)[C@@H](NC(=O)[C@@H](N)CCCCN)[C@@H](O)CN)C(=O)O [211.2] (H-K[Dab(3S-OH)][Orn]G[dOrn]PHK[ΔZArg]-OH)	− (>32 μg/mL)	− (>32 μg/mL)	++ (≤8 μg/mL)	+ (≤32 μg/mL)
N=C(N)NCC/C=C(\NC(=O)[C@H](CCCCN)NC(=O)[C@H](Cc1cccc(C(N)=O)c1)NC(=O)[C@@H]1CCCN1C(=O)[C@@H](CCCN)NC(=O)CNC(=O)[C@H](CCCN)NC(=O)[C@@H](NC(=O)[C@@H](N)CCCCN)[C@@H](O)CN)C(=O)O [211.3] (H-K[Dab(3S-OH)][Orn]G[dOrn]P[Phe(3-CONH2)]K[ΔZArg]-OH)	− (>32 μg/mL)	− (>32 μg/mL)	++ (≤8 μg/mL)	++ (≤8 μg/mL)
N=C(N)NCC/C=C(\NC(=O)[C@H](CCCCN)NC(=O)[C@H](Cc1cccc(F)c1)NC(=O)[C@@H]1CCCN1C(=O)[C@@H](CCCN)NC(=O)CNC(=O)[C@H](CCCN)NC(=O)[C@@H](NC(=O)[C@@H](N)CCCCN)[C@@H](O)CN)C(=O)O [211.4] (H-K[Dab(3S-OH)][Orn]G[dOrn]P[Phe(3-F)]K[ΔZArg]-OH)	− (>32 μg/mL)	− (>32 μg/mL)	++ (≤8 μg/mL)	++ (≤8 μg/mL)
Cc1cccc(C[C@H](NC(=O)[C@@H]2CCCN2C(=O)[C@@H](CCCN)NC(=O)CNC(=O)[C@H](CCCN)NC(=O)[C@@H](NC(=O)[C@@H](N)CCCCN)[C@@H](O)CN)C(=O)N[C@@H](CCCCN)C(=O)N/C(=C\CCNC(=N)N)C(=O)O)c1 [211.5] (H-K[Dab(3S-OH)][Orn]G[dOrn]P[Phe(3-Me)]K[ΔZArg]-OH)	− (>32 μg/mL)	− (>32 μg/mL)	++ (≤8 μg/mL)	++ (≤8 μg/mL)
N#Cc1ccc(C[C@H](NC(=O)[C@@H]2CCCN2C(=O)[C@@H](CCCN)NC(=O)CNC(=O)[C@H](CCCN)NC(=O)[C@@H](NC(=O)[C@@H](N)CCCCN)[C@@H](O)CN)C(=O)N[C@@H](CCCCN)C(=O)N/C(=C\CCNC(=N)N)C(=O)O)cc1 [211.6] (H-K[Dab(3S-OH)][Orn]G[dOrn]P[Phe(4-CN)]K[ΔZArg]-OH)	− (>32 μg/mL)	− (>32 μg/mL)	++ (≤8 μg/mL)	++ (≤8 μg/mL)
COc1ccc(C[C@H](NC(=O)[C@@H]2CCCN2C(=O)[C@@H](CCCN)NC(=O)CNC(=O)[C@H](CCCN)NC(=O)[C@@H](NC(=O)[C@@H](N)CCCCN)[C@@H](O)CN)C(=O)N[C@@H](CCCCN)C(=O)N/C(=C\CCNC(=N)N)C(=O)O)cc1 [211.7] (H-K[Dab(3S-OH)][Orn]G[dOrn]PY(Me)K[ΔZArg]-OH)	− (>32 μg/mL)	− (>32 μg/mL)	++ (≤8 μg/mL)	++ (≤8 μg/mL)
N=C(N)NCC/C=C(\NC(=O)[C@H](CCCCN)NC(=O)[C@H](CC(F)(F)F)NC(=O)[C@@H]1CCCN1C(=O)[C@@H](CCCN)NC(=O)CNC(=O)[C@H](CCCN)NC(=O)[C@@H](NC(=O)[C@@H](N)CCCCN)[C@@H](O)CN)C(=O)O [211.8] (H-K[Dab(3S-OH)][Orn]G[dOrn]P[Abu(4,4,4-F3)]K[ΔZArg]-OH)	− (>32 μg/mL)	− (>32 μg/mL)	++ (≤8 μg/mL)	++ (≤8 μg/mL)
N=C(N)NCC/C=C(\NC(=O)[C@H](CCCCN)NC(=O)[C@H](Cc1ccccc1F)NC(=O)[C@@H]1CCCN1C(=O)[C@@H](CCCN)NC(=O)CNC(=O)[C@H](CCCN)NC(=O)[C@@H](NC(=O)[C@@H](N)CCCCN)[C@@H](O)CN)C(=O)O [211.9] (H-K[Dab(3S-OH)][Orn]G[dOrn]P[Phe(2-F)]K[ΔZArg]-OH)	− (>32 μg/mL)	− (>32 μg/mL)	++ (≤8 μg/mL)	++ (≤8 μg/mL)
COc1ccc(C[C@H](NC(=O)[C@@H]2CCCN2C(=O)[C@@H](CCCN)NC(=O)CNC(=O)[C@H](CCCN)NC(=O)[C@@H](NC(=O)[C@@H](N)CCCCN)[C@@H](O)CN)C(=O)N[C@@H](CCCCN)C(=O)N/C(=C\CCNC(=N)N)C(=O)O)cc1OC [211.10] (H-K[Dab(3S-OH)][Orn]G[dOrn]P[Phe(3,4-(OMe)2)]K[ΔZArg]-OH)	− (>32 μg/mL)	− (>32 μg/mL)	++ (≤8 μg/mL)	++ (≤8 μg/mL)
N=C(N)NCC/C=C(\NC(=O)[C@H](CCCCN)NC(=O)[C@H](Cc1c[nH]c2ccccc12)NC(=O)[C@@H]1CCCN1C(=O)[C@@H](CCCN)NC(=O)CNC(=O)[C@H](CCCN)NC(=O)[C@@H](NC(=O)[C@@H](N)CCCCN)[C@@H](O)CN)C(=O)O [211.11] (H-K[Dab(3S-OH)][Orn]G[dOrn]PWK[ΔZArg]-OH)	− (>32 μg/mL)	− (>32 μg/mL)	++ (≤8 μg/mL)	++ (≤8 μg/mL)
N=C(N)NCC/C=C(\NC(=O)[C@H](CCCCN)NC(=O)[C@H](Cc1cnc[nH]1)NC(=O)[C@@H]1CCCN1C(=O)[C@@H](CCCN)NC(=O)CNC(=O)[C@@H](NC(=O)[C@@H](NC(=O)[C@@H](N)CCCCN)[C@@H](O)CN)C1CC1)C(N)=O [213.1] (H-K[Dab(3S-OH)][Gly(cPr)]G[dOrn]PHK[ΔZArg]-NH2)	− (>32 μg/mL)	− (>32 μg/mL)	++ (≤8 μg/mL)	+ (≤32 μg/mL)
N=C(N)NCC/C=C(\NC(=O)[C@H](CCCCN)NC(=O)[C@H](Cc1cnc[nH]1)NC(=O)[C@@H]1CCCN1C(=O)[C@@H](CCCN)NC(=O)CNC(=O)[C@@H](NC(=O)[C@@H](NC(=O)[C@@H](N)CCCCN)[C@@H](O)CN)C1CC1)C(=O)O [213.2] (H-K[Dab(3S-OH)][Gly(cPr)]G[dOrn]PHK[ΔZArg]-OH)	− (>32 μg/mL)	− (>32 μg/mL)	+ (≤32 μg/mL)	+ (≤32 μg/mL)
N=C(N)NCC/C=C(\NC(=O)[C@H](CCCCN)NC(=O)[C@H](Cc1cnc[nH]1)NC(=O)[C@@H]1CCCN1C(=O)[C@@H](CCCN)NC(=O)CNC(=O)[C@H](Cc1cnc[nH]1)NC(=O)[C@@H](NC(=O)[C@@H](N)CCCCN)[C@@H](O)CN)C(N)=O [214.1] (H-K[Dab(3S-OH)]HG[dOrn]PHK[ΔZArg]-NH2)	− (>32 μg/mL)	− (>32 μg/mL)	++ (≤8 μg/mL)	+ (≤32 μg/mL)
N=C(N)NCC/C=C(\NC(=O)[C@H](CCCCN)NC(=O)[C@H](Cc1cnc[nH]1)NC(=O)[C@@H]1CCCN1C(=O)[C@@H](CCCN)NC(=O)CNC(=O)[C@H](Cc1cnc[nH]1)NC(=O)[C@@H](NC(=O)[C@@H](N)CCCCN)[C@@H](O)CN)C(=O)O [214.2] (H-K[Dab(3S-OH)]HG[dOrn]PHK[ΔZArg]-OH)	− (>32 μg/mL)	− (>32 μg/mL)	+ (≤32 μg/mL)	− (>32 μg/mL)
N=C(N)NCC/C=C(\NC(=O)[C@H](CCCCN)NC(=O)[C@H](Cc1cnc[nH]1)NC(=O)[C@@H]1CCCN1C(=O)[C@@H](CCCN)NC(=O)CNC(=O)[C@H](CCCCN)NC(=O)[C@@H](NC(=O)[C@@H](N)CCCCN)[C@@H](O)CN)C(=O)O [215.1] (H-K[Dab(3S-OH)]KG[dOrn]PHK[ΔZArg]-OH)	− (>32 μg/mL)	− (>32 μg/mL)	++ (≤8 μg/mL)	+ (≤32 μg/mL)
CNCCCC[C@H](NC(=O)[C@@H](NC(=O)[C@@H](N)CCCCN)[C@@H](O)CN)C(=O)NCC(=O)N[C@H](CCCN)C(=O)N1CCC[C@H]1C(=O)N[C@@H](Cc1cnc[nH]1)C(=O)N[C@@H](CCCCN)C(=O)N/C(=C\CCNC(=N)N)C(N)=O [215.2] (H-K[Dab(3S-OH)][Lys(Me)]G[dOrn]PHK[ΔZArg]-NH2)	− (>32 μg/mL)	− (>32 μg/mL)	++ (≤8 μg/mL)	++ (≤8 μg/mL)
